The values that follow come from ChEMBL document CHEMBL3352031, “Discovery of diamine-linked 17-aroylamido-17-demethoxygeldanamycins as potent Hsp90 inhibitors” (Eur J Med Chem, 2014).

The source made the active and inactive calls. The rule behind the calls is not given here.

The subject of series [1] is Mus musculus. Briefly: Hepatotoxicity in Kunming mouse assessed as serum alanine aminotransferase level at 10 mg/kg, iv (reference value: 60.7 +/- 6.9U/L). The format is toxicity, organism-based. Details: dose 10 mg/kg, route intravenous. Conditions: in vivo.
The subject of series [2] is Mus musculus. Briefly: Hepatotoxicity in Kunming mouse assessed as serum aspartate aminotransferase level at 10 mg/kg, iv (reference value: 197.2 +/- 11.2 U/L). The format is toxicity, organism-based. Also noted: dose 10 mg/kg, route intravenous. Conditions: in vivo.
The test system of series [3] is MDA-MB-231. Briefly: cells. To be noted: Homo sapiens, MDA-MB-231, 72 h.
Description: Cytotoxicity against human MDA-MB-231 cells after 72 hrs by MTT assay
Series [4] concerns the target Heat shock protein HSP 90-alpha (Homo sapiens, UniProt P07900). Briefly: Inhibition of GA-FITC binding to human recombinant Hsp90alpha incubated for 5 hrs by fluorescence polarization assay. (Fluorescence polarisation rises when a labelled molecule tumbles more slowly, as on binding a larger partner.)
Series [5] has as its target T1, Heat shock protein HSP90 (Homo sapiens) (UniProt P07900+P08238). Briefly: Inhibition Hsp90 in human MDA-MB 231 cells assessed as reduction in CDK4 protein level at 0.5 and 5 uM incubated for 24 hrs by Western blot method. The series is classed as cell-based. On the technique in general: A western blot detects proteins with antibodies after separation by electrophoresis.

Series [6] in a line: Safety index, ratio of IC50 for 17-AAG to IC50 for test compound against HUVEC cells after 72 hrs by MTT assay. The format is ADME, cell-based. Conditions: human, read-out: Ratio IC50. For orientation: Formazan colour is commonly taken as a measure of viable cells.
Another series has as its system A-431. Briefly: cells. To be noted: Homo sapiens, A-431, 72 h.
The subject of a further series is HeLa. Briefly: cells. To be noted: Homo sapiens, 72 h.
Series [7] in a line: Safety index, ratio of IC50 for GA to IC50 for test compound against human HL7702 cells after 72 hrs by MTT assay. The format is ADME, cell-based, L02. Conditions: read-out: Ratio IC50.
A short description of series [8]: Safety index, ratio of IC50 for GA to IC50 for test compound against HUVEC cells after 72 hrs by MTT assay. The format is cell-based. To be noted: human, read-out: Ratio IC50.
Series [9] has as its system MDA-MB-231. Briefly: Antitumor activity against human MDA-MB-231 cells xenografted in athymic nude mouse assessed as tumor growth inhibition at 10 mg/kg, iv dosed every 3 day for 15 consecutive days. The series is classed as functional. To be noted: MDA-MB-231, 72 h, read-out: TGI.
A short description of series [10]: cells. Conditions: Homo sapiens, BGC-823, 72 h.
Description: Cytotoxicity against human BGC823 cells after 72 hrs by MTT assay
The next series deals with HUVEC. Briefly: cells. Conditions: Homo sapiens, 72 h.
The target of series [11] is T1, Heat shock protein HSP90 (Homo sapiens). Briefly: Inhibition Hsp90 in human MDA-MB 231 cells assessed as reduction in HER2 protein level at 0.5 and 5 uM incubated for 24 hrs by Western blot method. The series is classed as cell-based.
Series [12] in a line: Safety index, ratio of IC50 for 17-AAG to IC50 for test compound against human HL7702 cells after 72 hrs by MTT assay. The format is cell-based, L02. To be noted: read-out: Ratio IC50.
Another series concerns SW480. Briefly: cells. Conditions: Homo sapiens, SW480, 72 h.
The test system of series [13] is MDA-MB-231. Briefly: Antitumor activity against human MDA-MB-231 cells xenografted in athymic nude mouse assessed as reduction in tumor weight at 10 mg/kg, iv dosed every 3 day for 15 consecutive days. The series is classed as functional.
Series [14] deals with T1, Heat shock protein HSP90 (Homo sapiens). Briefly: Inhibition Hsp90 in human MDA-MB 231 cells assessed as reduction in AKT protein level at 0.5 and 5 uM incubated for 24 hrs by Western blot method. The format is cell-based.
Series [15] in a line: cells. Conditions: Homo sapiens, L02, 72 h.
Description: Cytotoxicity against human HL7702 cells after 72 hrs by MTT assay
The test system of the next series is A549. Briefly: cells. To be noted: Homo sapiens, A549, 72 h.
The next series deals with HepG2. Briefly: cells. To be noted: Homo sapiens, HepG2, 72 h.
The target of series [16] is T1, Heat shock protein HSP90 (Homo sapiens). Briefly: Inhibition Hsp90 in human MDA-MB 231 cells assessed as reduction in EGFR protein level at 0.5 and 5 uM incubated for 24 hrs by Western blot method. The format is cell-based.

Description for A-431: Cytotoxicity against human A431 cells after 72 hrs by MTT assay
Description for A549: Cytotoxicity against human A549 cells after 72 hrs by MTT assay
Description for HUVEC: Cytotoxicity against HUVEC cells after 72 hrs by MTT assay
Description for HeLa: Cytotoxicity against human HeLa cells after 72 hrs by MTT assay
Description for HepG2: Cytotoxicity against human HepG2 cells after 72 hrs by MTT assay
Description for SW480: Cytotoxicity against human SW480 cells after 72 hrs by MTT assay

Turning to `COC1=C2C[C@@H](C)C[C@H](OC)[C@H](O)[C@@H](C)/C=C(\C)[C@H](OC(N)=O)[C@@H](OC)/C=C\C=C(/C)C(=O)NC(=CC1=O)C2=O` [GELDANAMYCIN], the Activity with Mus musculus [1] is on record as 273 U/L; in the series with Mus musculus [2], 317.2 U/L.
As for `COc1cc(/C=C/C(=O)NCCCCCCNC2=C3C[C@@H](C)C[C@H](OC)[C@H](O)[C@@H](C)/C=C(\C)[C@H](OC(N)=O)[C@@H](OC)/C=C\C=C(/C)C(=O)NC(=CC2=O)C3=O)ccc1O`, the values for the Activity in the series on Mus musculus [1] and in the series with Mus musculus [2] were 72.7 U/L and 199.3 U/L, respectively. Besides, the IC50 (commonly the concentration that inhibits the measured activity by half) came to 270 nM in the series with MDA-MB-231 [3] and 470 nM in series [4].
For `COc1ccc(/C=C/C(=O)NCCCCCCNC2=C3C[C@@H](C)C[C@H](OC)[C@H](O)[C@@H](C)/C=C(\C)[C@H](OC(N)=O)[C@@H](OC)/C=C\C=C(/C)C(=O)NC(=CC2=O)C3=O)cc1OC`, in that order: 52.8 U/L, 193.4 U/L, 300 nM and 410 nM.
For `COc1cc(/C=C/C(=O)NCCCCNC2=C3C[C@@H](C)C[C@H](OC)[C@H](O)[C@@H](C)/C=C(\C)[C@H](OC(N)=O)[C@@H](OC)/C=C\C=C(/C)C(=O)NC(=CC2=O)C3=O)ccc1O`, in that order: 75.3 U/L, 224.8 U/L, 550 nM and 970 nM.
`CO[C@H]1/C=C\C=C(/C)C(=O)NC2=CC(=O)C(NCCCCCCNC(=O)c3ccc([N+](=O)[O-])cc3)=C(C[C@@H](C)C[C@H](OC)[C@H](O)[C@@H](C)/C=C(\C)[C@@H]1OC(N)=O)C2=O` returned an IC50 with MDA-MB-231 [3] of 2950 nM.
Turning to `COc1cc(/C=C/C(=O)NCCCCCCNC2=C3C[C@@H](C)C[C@H](OC)[C@H](O)[C@@H](C)/C=C(\C)[C@H](OC(N)=O)[C@@H](OC)/C=C\C=C(/C)C(=O)NC(=CC2=O)C3=O)cc(OC)c1OC`, the inhibition entry in series [5], in series [11], in series [14] and in series [16] was “Active” throughout. The selectivity ratio at 72 h in series [6] amounted to 5; in series [7], 35; in series [8] it was 68; in series [12] it was 50. Moreover, the IC50 was 773 nM in the series with A-431; 284 nM with HeLa; 527 nM in “cells [10]”; 1350 nM with HUVEC; 796 nM with SW480; 190 nM in the series on MDA-MB-231 [3]. The IC50 stood at 290 nM in series [4], 4950 nM in the series “cells [15]”, 278 nM with A549 and 562 nM in the series with HepG2. In the series on MDA-MB-231 [9], the inhibition in vivo at 10 mg/kg turned out to be 81%. In addition, the Activity in the series on Mus musculus [1] is 40.4 U/L; in the series on Mus musculus [2], 181 U/L. Besides, the T/C (in general, the result in the treated group divided by that in the control group, in per cent) with MDA-MB-231 [13] turned out to be 21%.
As to `COc1cc(/C=C/C(=O)N2CCC(CNC3=C4C[C@@H](C)C[C@H](OC)[C@H](O)[C@@H](C)/C=C(\C)[C@H](OC(N)=O)[C@@H](OC)/C=C\C=C(/C)C(=O)NC(=CC3=O)C4=O)CC2)ccc1O`, the Activity in the series with Mus musculus [1] is 148.6 U/L; with Mus musculus [2], 260.8 U/L. Also, the IC50 with MDA-MB-231 [3] came to 940 nM; in series [4], 1840 nM.
Regarding `CO[C@H]1/C=C\C=C(/C)C(=O)NC2=CC(=O)C(NCC3CCN(C(=O)/C=C/c4ccc(O)cc4)CC3)=C(C[C@@H](C)C[C@H](OC)[C@H](O)[C@@H](C)/C=C(\C)[C@@H]1OC(N)=O)C2=O`, in the series on MDA-MB-231 [3], the IC50 was found to be 1680 nM.
On the same count and under the same terms, as for `CO[C@H]1/C=C\C=C(/C)C(=O)NC2=CC(=O)C(NCCCCCCNC(=O)/C=C/c3ccc(O)cc3)=C(C[C@@H](C)C[C@H](OC)[C@H](O)[C@@H](C)/C=C(\C)[C@@H]1OC(N)=O)C2=O`, the figure is 970 nM; as for `CO[C@H]1/C=C\C=C(/C)C(=O)NC2=CC(=O)C(NCCCCCCNC(=O)/C=C/c3cccc(O)c3)=C(C[C@@H](C)C[C@H](OC)[C@H](O)[C@@H](C)/C=C(\C)[C@@H]1OC(N)=O)C2=O`, 1240 nM.
With `C=CCNC1=C2C[C@@H](C)C[C@H](OC)[C@H](O)[C@@H](C)/C=C(\C)[C@H](OC(N)=O)[C@@H](OC)/C=C\C=C(/C)C(=O)NC(=CC1=O)C2=O` [TANESPIMYCIN], the IC50 with A-431 is 89 nM; with HeLa it was 128 nM; in the series “cells [10]”, 847 nM; in the series on HUVEC it was 282 nM; with SW480 it was 572 nM; in the series on MDA-MB-231 [3], 280 nM. Moreover, the IC50 was 99 nM in the series “cells [15]”, 81 nM in the series with A549 and 91 nM with HepG2. Also, the inhibition in vivo at 10 mg/kg in the series on MDA-MB-231 [9] was 73%. Further, the figures for the Activity in the series on Mus musculus [1] and in the series with Mus musculus [2] were 66.6 U/L and 237.4 U/L, respectively. In addition, the T/C with MDA-MB-231 [13] was 28%.
The molecule `CO[C@H]1/C=C\C=C(/C)C(=O)NC2=CC(=O)C(NCC3CCN(C(=O)c4ccccc4O)CC3)=C(C[C@@H](C)C[C@H](OC)[C@H](O)[C@@H](C)/C=C(\C)[C@@H]1OC(N)=O)C2=O` came in with an IC50 in the series on MDA-MB-231 [3] of 1820 nM.
